Test results from US20250025443A1, “COMPOUNDS AND METHODS FOR TREATING CORONA VIRUSES” (CLEAR CREEK BIO, INC., priority 2021, published 2025).
pIC50: −log10 of the molar value.

The compounds below were run against SARS-CoV-2 Papain-Like Protease (PLpro) (Severe acute respiratory syndrome coronavirus 2 (2019-nCoV) (SARS-CoV-2), UniProt P0DTD1) (assay: biochemical). Conditions: PLpro enzymatic fluorescence assay; class symbols; read-out: PLpro IC50.
`Cc1ccc(-c2cc(C3(NC(=O)c4cc(OC[C@@H]5CCN5)ccc4C)CC3)c3cccnc3c2)o1` [Compound 646, (S)-5-(Azetidin-2-ylmethoxy)-2-methyl-N-(1-(7-(5-methylfuran-2-yl)quinolin-5-yl)cyclopropyl)benzamide] was tested, and the pIC50 was > 7.00. With `Cc1ccc(OC[C@@H]2CCN2C)cc1C(=O)NC1(c2cc(-c3ccccc3)cc3ncccc23)CC1` [Compound 594, (S)-2-Methyl-5-((1-methylazetidin-2-yl)methoxy)-N-(1-(7-phenylquinolin-5-yl)cyclopropyl)benzamide] the pIC50 was > 7.00.

Same assay, conditions: SARS-CoV-2 PLpro enzymatic fluorescence assay; read-out: PLpro IC50
In the case of `Cc1ccc(OC[C@@H]2CCN2C)cc1C(=O)NC1(c2cccc3nc(N(C)C)ccc23)CC1` [Compound 548, (S)-N-(1-(2-(Dimethylamino)quinolin-5-yl)cyclopropyl)-2-methyl-5-((1-methylazetidin-2-yl)methoxy)benzamide], the pIC50 was > 7.00. Compound `Cc1ccc(N)cc1C(=O)NC(c1cccc2ccccc12)C(F)F` (stereo not drawn) [Compound 185, 5-Amino-N-(2,2-difluoro-1-(naphthalen-1-yl)ethyl)-2-methylbenzamide] has a pIC50 of 5.30 to 6.00. Work on `Cc1cc2ccn(C3CCC3)c2cc1C(=O)NC1(c2cccc3ccccc23)CC1` [Compound 296, 1-Cyclobutyl-5-methyl-N-(1-(naphthalen-1-yl)cyclopropyl)-1H-indole-6-carboxamide] yielded a pIC50 of 6.00 to 7.00. `Cc1ccc(OCCN(C)C)cc1C(=O)N[C@H](C)c1cccc2ccccc12` [Compound 160, (R)-5-(2-(Dimethylamino)ethoxy)-2-methyl-N-(1-(naphthalen-1-yl)ethyl)benzamide] was tested, and the pIC50 was 6.00 to 7.00.
